Results published in patent US8114638B2, “Arabinitol dehydrogenase from Neurospora crassa” (The Board of Trustees of the University of Illinois, priority 2007, dated 2012).
Like-named read-outs stand apart in the source and are kept apart here. Marks after values point to notes of the source that are not given here.

Tests used:
N. crassa LAD [1] = target: T1, N. crassa LAD (Neurospora crassa, UniProt Q7SI09); settings: for % Activity: relative to L-arabinitol = 100, 50 mM Tris pH 8.0, saturated NAD+
Description: (§1) Initial rates were determined using a Varian Cary 100 Bio UV-visible spectrophotometer (Varian) at 25° C. in 50 mM Tris (pH 8.0). […] Kinetic measurements with substrate L-arabinitol and cofactor NAD^+ were taken in a 5-by-5 matrix format, with substrate and cofactor concentrations varied from below their Km to 10-fold higher than their Km. The kinetic data were analyzed with a modified version of Cleland's program (Cleland, W. W. (1979) Statistical analysis of enzyme kinetic data, Methods Enzymol 63, 103-138.). Vmax and Km for both L-arabinitol and NAD^+ were obtained by fitting the data to a sequential ordered mechanism with NAD^+ binding first, based on the proposed mechanism for sorbitol dehydrogenase (Lindstad et al. (1992) The kinetic mechanism of sheep liver sorbitol dehydrogenase, Eur J Biochem 210, 641-647.) v=VmaxAB/(KiaKB+KAB+KBA+AB) (EQ. 1)
where v is the initial velocity, Vmax is the maximum velocity, KA and KB are the Michaelis-Menten constants for NAD+ and L-arabinitol, respectively, A and B are the concentrations of NAD+ and L-arabinitol, respectively, and Kia is the dissociation constant for NAD+.
Kinetics. The data were used to calculate the kinetic constants for various substrates by fitting the Michaelis-Menten equation using Origin 5.0. […] The data represent averages of assays performed in duplicate or triplicate on two separate occasions.

N. crassa LAD [2] = target: T1, N. crassa LAD; experiment: Cofactor specificity of N. crassa LAD by HPLC; assay type: biochemical; parameters: GST (glutathione S-transferase), with thrombin cleavage site (N, cleaved yes); made in house; host or cells: Escherichia coli BL21(DE3), vector pGEX-4T-3 (pGEX-lad1); settings: 1 mM NAD(P)+, 25 mM L-arabinitol, 50 mM Tris pH 8.0, 20 min at 37° C., UV 340 nm
Description: The cofactor specificity of N. crassa LAD was examined by HPLC. The separation of NAD+, NADP+, NADH, and NADPH was carried out using standard methods. No discernible cross-contamination of oxidized cofactors was observed. 20 μL reaction mixtures consisting of equal parts of 1 mM NAD(P)+ and 25 mM L-arabinitol in 50 mM Tris (pH 8.0) were set up, and following addition of approximately 1 μg of enzyme, the reaction was allowed to proceed for 20 min at 37° C. […] This indicated the strong preference for NAD+ as the cofactor of N. crassa LAD.
HPLC analysis. The enzyme (1 μg) was incubated in a mixture of buffer and 25 mM L-arabinitol with 1 mM NAD(P)+ at 37° C. for 20 min. The sample was eluted on a Zorbax 3.0×150 mm C-18 (3.5 μm) column with a UV detector (Agilent 1100 series). The eluent consisted of two components: 0.1 M KH2PO4 containing 5 mM tetrabutylammonium hydrogen sulfate (pH 5.5) (buffer A) and 100% methanol (buffer B). The most suitable gradient was an initial isocratic step for 6 min at 93% buffer A, a gradient for 5 min from 7 to 30% buffer B, and a final isocratic step for 5 min at 30% buffer B.

[3] = 4° C. and freeze-thawing; cited from earlier work
[4] = LADs of other organisms, from references, cited from earlier work
[5] = Kinetic parameters of LAD from various source organisms; assay type: biochemical; settings: greater
Description: as §1

[6] = with indicated substrate, 25° C., 50 mM Tris pH 8.0, saturated NAD+ (2 mM)

OC[C@@H](O)[C@@H](O)[C@@H](O)CO [Adonitol, adonitol]
Km (N. crassa LAD [1]; read-out: Km (mean ± SD), with indicated substrate, 25° C., 50 mM Tris pH 8.0, saturated NAD+ (2 mM)): 35 ± 3 mM | % Activity (N. crassa LAD [1]; 25° C.): 46% | kcat (mean ± SD) (N. crassa LAD [1]; [6]): 1,080 ± 30 min^−1

OC[C@@H](O)C(O)[C@H](O)CO [D-Arabinitol, D-arabinitol]
activity as substrate or cofactor of N. crassa LAD (in words) (N. crassa LAD [1]): No activity was observed | % Activity (N. crassa LAD [1]; 25° C.): 0%

OC[C@@H](O)[C@@H](O)[C@H](O)[C@H](O)CO [D-Mannitol, D-mannitol]
activity as substrate or cofactor of N. crassa LAD (in words) (N. crassa LAD [1]): No activity was observed | % Activity (N. crassa LAD [1]; 25° C.): 0%

OC[C@@H](O)[C@@H](O)[C@H](O)[C@@H](O)CO [D-Sorbitol, D-sorbitol]
activity as substrate or cofactor of N. crassa LAD (in words) (N. crassa LAD [1]): No activity was observed | % Activity (N. crassa LAD [1]; 25° C.): 0^c %

OC[C@H](O)C(O)[C@@H](O)CO [L-Arabinitol, L-arabinitol]
Km (N. crassa LAD [1]; read-out: Km value for substrate): 16 mM | % Activity (N. crassa LAD [1]; 25° C.): 100%

NC(=O)c1ccc[n+]([C@@H]2O[C@H](COP(=O)([O-])OP(=O)(O)OC[C@H]3O[C@@H](n4cnc5c(N)ncnc54)[C@H](O)[C@@H]3O)[C@@H](O)[C@H]2O)c1 [NAD, NAD+]
reduced cofactor peak by HPLC (in words) (N. crassa LAD [2]): a single peak (UV 340 nm) was observed that had the same retention time as authentic NADH | Km (N. crassa LAD [1]; read-out: Km for L-arabinitol (mean ± SD), with indicated coenzyme, 25° C., 50 mM Tris pH 8.0): 16 ± 3 mM | Km (N. crassa LAD [1]; read-out: Km for NAD(P) (mean ± SD), 25° C., 50 mM Tris pH 8.0, substrate L-arabinitol): 0.174 mM | kcat (mean ± SD) (N. crassa LAD [1]; with indicated coenzyme, 25° C., 50 mM Tris pH 8.0, substrate L-arabinitol): 1,206 ± 54 min^−1

NC(=O)c1ccc[n+]([C@@H]2O[C@H](COP(=O)([O-])OP(=O)(O)OC[C@H]3O[C@@H](n4cnc5c(N)ncnc54)[C@H](OP(=O)(O)O)[C@@H]3O)[C@@H](O)[C@H]2O)c1 [NADP, NADP+]
reduced cofactor peak by HPLC (in words) (N. crassa LAD [2]): a small yet detectable peak was observed with a retention time corresponding to an authentic sample of NADPH | activity as substrate or cofactor of N. crassa LAD (in words) (N. crassa LAD [1]; listed as NADP+): small yet detectable activity | activity as substrate or cofactor of N. crassa LAD (in words) (N. crassa LAD [1]; listed as NADP^+): very low yet detectable activity

OC[C@@H](O)[C@H](O)[C@@H](O)CO [Xylitol, xylitol]
% Activity (N. crassa LAD [1]; 25° C.): 4.9% | kcat (mean ± SD) (N. crassa LAD [1]; [6]): 970 ± 40 min⁻¹

A. niger: L-arabinitol 4-dehydrogenase from Aspergillus niger (literature)
stability of purified enzyme as reported (in words) [3]: highly unstable, with rapidly diminishing activity at 4° C., and complete loss of activity after freeze-thawing of the enzyme | Specific activity [4]: 96 U/mg | Km ([4]; read-out: Km,L-arabinitol): 89 mM | Km ([4]; read-out: Km,NAD+): 0.05 mM | specific activity relative to N. crassa LAD [5]: about 3 fold

A. oryzae: L-arabinitol 4-dehydrogenase from Aspergillus oryzae (literature)
Specific activity [4]: 0.04 U/mg

H. jecorina: L-arabinitol 4-dehydrogenase from Hypocrea jecorina (literature; two table lines from different references)
kcat [4]: 0.85 s⁻¹ | Km ([4]; read-out: Km,NAD+): 0.18 mM
